{"source": "patent US20240197749A1", "about": "“METHOD OF INHIBITING LIPOGENESIS WITH UBIQUITIN-SPECIFIC PEPTIDASE 24 INHIBITOR COMPOSITION” (NATIONAL CHENG KUNG UNIVERSITY, priority 2022, published 2024)", "key": {"USP24 [1]": {"target": "T1, USP24 (Homo sapiens, UniProt Q9UPU5)", "T1 sequence (Q9UPU5 whole entry, species assumed)": "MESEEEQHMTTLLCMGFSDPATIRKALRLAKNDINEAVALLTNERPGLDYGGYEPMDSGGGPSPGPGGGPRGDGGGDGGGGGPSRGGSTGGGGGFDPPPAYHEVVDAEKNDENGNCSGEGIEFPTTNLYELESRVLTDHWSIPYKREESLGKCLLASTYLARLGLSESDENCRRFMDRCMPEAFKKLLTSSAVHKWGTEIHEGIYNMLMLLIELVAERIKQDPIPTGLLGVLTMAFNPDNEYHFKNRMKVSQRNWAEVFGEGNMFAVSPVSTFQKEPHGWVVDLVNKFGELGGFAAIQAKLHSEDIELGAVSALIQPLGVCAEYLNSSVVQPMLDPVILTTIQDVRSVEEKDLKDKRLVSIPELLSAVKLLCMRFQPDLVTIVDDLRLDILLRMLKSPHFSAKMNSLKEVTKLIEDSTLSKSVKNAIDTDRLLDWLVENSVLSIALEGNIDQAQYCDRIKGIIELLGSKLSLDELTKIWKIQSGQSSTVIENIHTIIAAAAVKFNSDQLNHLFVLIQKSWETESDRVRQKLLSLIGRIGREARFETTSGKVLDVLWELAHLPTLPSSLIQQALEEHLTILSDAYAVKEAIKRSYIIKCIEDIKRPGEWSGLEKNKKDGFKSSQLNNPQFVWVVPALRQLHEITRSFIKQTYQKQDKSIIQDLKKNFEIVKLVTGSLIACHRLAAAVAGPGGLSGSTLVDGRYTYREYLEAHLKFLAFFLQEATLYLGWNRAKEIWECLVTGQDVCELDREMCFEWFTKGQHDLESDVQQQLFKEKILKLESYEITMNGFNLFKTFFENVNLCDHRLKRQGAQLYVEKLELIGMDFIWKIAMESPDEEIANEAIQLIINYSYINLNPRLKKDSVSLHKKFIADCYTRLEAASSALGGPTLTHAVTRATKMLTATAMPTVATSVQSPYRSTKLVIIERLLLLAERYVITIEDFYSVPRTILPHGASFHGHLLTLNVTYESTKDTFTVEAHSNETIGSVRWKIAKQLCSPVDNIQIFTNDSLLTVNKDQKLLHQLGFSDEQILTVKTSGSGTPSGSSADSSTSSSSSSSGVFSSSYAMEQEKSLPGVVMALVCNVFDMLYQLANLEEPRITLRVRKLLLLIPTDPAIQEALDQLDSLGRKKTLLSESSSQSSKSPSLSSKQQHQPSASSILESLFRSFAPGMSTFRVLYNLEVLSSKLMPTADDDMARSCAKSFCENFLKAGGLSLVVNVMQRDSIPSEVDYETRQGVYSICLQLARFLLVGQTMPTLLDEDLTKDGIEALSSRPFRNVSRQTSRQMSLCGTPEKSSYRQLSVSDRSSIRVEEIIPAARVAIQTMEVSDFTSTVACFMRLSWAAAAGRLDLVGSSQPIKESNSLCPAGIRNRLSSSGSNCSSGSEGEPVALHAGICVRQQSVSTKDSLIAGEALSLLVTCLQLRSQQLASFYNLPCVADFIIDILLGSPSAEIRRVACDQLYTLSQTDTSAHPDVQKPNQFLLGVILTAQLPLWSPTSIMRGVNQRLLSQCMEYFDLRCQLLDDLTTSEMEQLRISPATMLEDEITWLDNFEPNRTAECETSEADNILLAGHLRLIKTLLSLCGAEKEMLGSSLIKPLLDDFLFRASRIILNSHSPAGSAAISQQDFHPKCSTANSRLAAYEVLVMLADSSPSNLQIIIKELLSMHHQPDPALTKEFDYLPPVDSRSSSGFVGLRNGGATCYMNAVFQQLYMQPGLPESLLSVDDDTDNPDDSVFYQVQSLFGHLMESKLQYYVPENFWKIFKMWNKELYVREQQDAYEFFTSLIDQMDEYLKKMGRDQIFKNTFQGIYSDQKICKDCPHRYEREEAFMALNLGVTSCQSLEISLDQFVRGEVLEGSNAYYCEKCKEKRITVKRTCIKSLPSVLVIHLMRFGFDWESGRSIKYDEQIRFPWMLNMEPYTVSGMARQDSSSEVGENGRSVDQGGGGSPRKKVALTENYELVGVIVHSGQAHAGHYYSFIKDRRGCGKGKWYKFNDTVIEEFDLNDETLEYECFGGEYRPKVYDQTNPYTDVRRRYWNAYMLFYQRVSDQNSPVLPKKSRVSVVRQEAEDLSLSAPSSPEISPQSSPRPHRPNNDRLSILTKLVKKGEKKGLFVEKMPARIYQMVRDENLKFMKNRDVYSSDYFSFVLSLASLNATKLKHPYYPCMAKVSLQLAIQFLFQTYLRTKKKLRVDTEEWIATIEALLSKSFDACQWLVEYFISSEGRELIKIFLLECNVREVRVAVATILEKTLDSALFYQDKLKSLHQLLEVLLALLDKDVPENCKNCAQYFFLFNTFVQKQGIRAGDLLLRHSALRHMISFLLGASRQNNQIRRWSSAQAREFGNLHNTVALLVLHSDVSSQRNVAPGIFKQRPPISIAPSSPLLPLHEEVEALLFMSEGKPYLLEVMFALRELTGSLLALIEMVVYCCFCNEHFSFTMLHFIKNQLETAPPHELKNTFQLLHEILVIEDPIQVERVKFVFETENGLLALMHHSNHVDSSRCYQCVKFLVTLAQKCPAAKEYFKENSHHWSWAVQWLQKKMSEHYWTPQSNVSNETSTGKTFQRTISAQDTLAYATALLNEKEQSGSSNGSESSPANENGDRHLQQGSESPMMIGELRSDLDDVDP", "conditions": "known; cited from earlier work"}, "HFD mice [2]": {"test_system": "HFD mice", "experiment": "treatment of HFD mice from the initiation of the experiment (previous studies of the inventors)", "type": "in vivo", "conditions": "HFD mice treated i.p. from the initiation of the experiment", "source_text": "(§1) In the previous studies of the inventors, USP24-i-101 treated (i.p.) the HFD mice from the initiation of the experiment. […] In this Example, USP24-i-101 treated the mice after obesity, not from initiation. Mice were fed with HFD for two months and then treated with USP24-i-101 one month (two times per week, i.p.)."}, "[3]": {"test_system": "differentiated 3T3-L1 cells", "experiment": "Western blotting of proteins associated with adipocyte formation in 3T3-L1 cells", "type": "cell-based, mouse", "conditions": "Western blot, vs DMSO", "description": "(§2) Commercially available mouse fibroblast cell line 3T3-L1 was cultured in commercially available Dulbecco's Modified Eagle Medium (DMEM) containing 10% fetal bovine serum (FBS), 100 μg/mL streptomycin, and 100 U/ml penicillin G sodium salt. All cell cultures were maintained at 37° C. with 5% CO2.\n(§3) Please referred to FIG. 6A, which illustrated the experimental procedure for evaluating the effects of USP24 inhibitor on the induction of 3T3-L1 cells into adipocytes according to an embodiment of the present invention. When 3T3-L1 cells reached approximately 70% confluence, the MDIR induction medium containing USP24 inhibitor (5 μM or 10 μM) was added to the cells on day 0 and cultured for 2 days. Subsequently, on day 2, the induction medium was replaced with fresh medium containing USP24 inhibitor (5 μM or 10 μM) and insulin (10 μg/mL), and the cells were cultured for an additional 2 days. Next, the culture medium was changed the fresh medium containing USP24 inhibitor on day 4, and the cells were cultured for 4-6 more days, allowing 3T3-L1 cells to differentiate into adipocytes or adipocyte-like cells. And then, the cells were stained with Oil-Red-O (on days 8-10) to assess the influence of USP24 inhibitor on adipocyte formation, as shown in FIGS. 6B and 6C.\nThe MDIR induction medium included 0.5 mM 3-isobutyl-1-methylxanthine (IBMX), 1 μM dexamethasone (D), […] insulin (I), and 1 μM rosiglitazone (R) in Dulbecco's Modified Eagle Medium (DMEM). The components M, D, R, and USP24 inhibitor were dissolved in dimethyl sulfoxide (DMSO) and then added to DMEM. The insulin culture medium contained 10 μg/mL insulin in DMEM, and the fresh medium included 10% fetal bovine serum (FBS) in DMEM.\nIt was known that PPAR-γ and PLIN1 were important markers for adipocytes. In this embodiment, commercially available antibodies were used to perform Western blotting on 3T3-L1 cells to evaluate the expression levels of proteins associated with adipocyte formation in response to USP24-i-a treatment, as shown in FIGS. 7A to 7G."}, "CREB": {"test_system": "CREB", "experiment": "CREB and its phosphorylation during 3T3-L1 differentiation", "type": "cell-based, mouse"}, "USP24-WT mice": {"test_system": "USP24-WT mice", "experiment": "liver tissue section H&E staining after normal diet or high-fat diet and USP24 inhibitor", "type": "in vivo", "conditions": "USP24 inhibitor oral 2 months", "source_text": "(§4) Animal-related experiments had been reviewed and approved by the Institutional Animal Care and Use Committee (IACUC) of National Cheng Kung University (NCKU). These genetically modified mice were generated at the National Laboratory Animal Center (NLAC) in Tainan, Taiwan. After breeding, 2 months-old wild-type mice and genetically modified mice were used to study lipogenesis progress. The cages provided adequate space, and the population density allowed the animals to move freely. The provided feed was sufficient for the normal growth and maintenance of regular body weight in both wild-type and genetically modified mice. Genetically modified mice had access to fresh, uncontaminated drinking water. Genetically modified mice were observed and cared for at least 2 to 3 times a week. All animal-related procedures were conducted in accordance with relevant guidelines and regulations.\nIt was known that USP24 inhibitor (USP24-i1, NCI677397, Formula I-3-3) could block USP24 catalytic activity, delaying or reversing cancer drug resistance."}, "USP24-WT HFD mice": {"test_system": "USP24-WT HFD mice", "experiment": "Oil-Red-O staining assay of liver tissue sections (hepatic lipid accumulation)", "type": "in vivo", "conditions": "i.p. 10 mg/kg once a week for two consecutive months", "source_text": "as §4\nIn this embodiment, the analysis of hepatic lipid accumulation and distribution were performed using the Oil-Red-O staining assay. […] The USP24 inhibitor was administered by intraperitoneal injection (i.p.) at a dose of 10 mg/kg once a week for two consecutive months. Statistical analysis was conducted using a t-test, where * indicates p<0.01, and ** indicates p<0.005 (FIG. 5B)."}, "USP24 [4]": {"target": "T1, USP24", "experiment": "inhibition of USP24 activity", "type": "biochemical", "conditions": "in comparison to USP24-i1; not shown in the figures"}, "3T3-L1 cells": {"test_system": "3T3-L1 cells", "experiment": "differentiation of 3T3-L1 cells into adipocytes, Oil-Red-O staining", "type": "cell-based, mouse", "conditions": "5 μM or 10 μM, MDIR induction, Oil-Red-O on days 8-10; dose-dependent; vs DMSO", "description": "as §2\nas §3, with “6C. […]” for “6C.”"}, "HFD-mice": {"test_system": "HFD-mice", "experiment": "serum tests / safety assay by ELISA in ND and HFD mice", "type": "in vivo", "conditions": "serum of HFD mice; i.p. 10 mg/kg once a week for two months", "description": "As shown in FIGS. 10A to 10H, serum were collected from normal diet (ND) and high fat diet (HFD) mice with or without USP24-i-101 treatment to study the safety assay by ELISA assay.\nIn this Example, wild-type mice were fed a normal diet (ND) or a high-fat diet (HFD), and they were injected intraperitoneally (i.p.) with 10 mg/kg of USP24-i once a week for two consecutive months. Subsequently, mouse sera were collected, and serum-related indices were examined to assess the impact of USP24-i on lipogenesis and liver function, as depicted in FIGS. 10A to 10H.\nThere was no statistically significant difference of the time of latency to fall off the rotarod between the USP 24 KO mice and the wild-type USP 24 mice, as shown in FIG. 10B. Mouse sera were collected from normal diet (ND) and high fat diet (HFD) mice with or without USP24-i treatment to perform the safety evaluation by ELISA assay. […] Therefore, USP24 inhibitor could inhibit the lipogenesis, thereby improving liver activity."}, "HFD mice [5]": {"test_system": "HFD mice", "experiment": "treatment of HFD mice after obesity: body weight, visceral fat, fatty liver, eWAT and iWAT", "type": "in vivo", "source_text": "as §1\nIn addition, USP24-i-101 could inhibit eWAT and iWAT of mice. The subcutaneous fat and visceral fat (around organs such as kidney and reproductive organs) were collected to analyze the size of the epididymal WAT [eWAT, as shown in FIG. 11D (a), upper panel of FIG. 11D(c) and upper panel of FIG. 11D(d)] and inguial WAT [iWAT, as shown in FIG. 11D(b), lower panel of FIG. 11D(c) and lower panel of FIG. 11D(d)]."}, "HFD mice [6]": {"test_system": "HFD mice", "experiment": "magnetic resonance imaging (MRI) of level and distribution of fat in HFD mice", "conditions": "MRI in vivo signal and collected kidney organs", "source_text": "The HFD mice with or without USP24-i-101 treatment according to the experimental flowchart of FIG. 12A were examined by magnetic resonance imaging (MRI) equipment to assess the level and distribution of fat inside them."}, "[7]": {"conditions": "HFD two months, then treatment one month, two times per week, i.p."}}, "data": [{"molecule": "CN1CCN(CCCCN2c3ccccc3Sc3ccc(C(=O)c4ccccc4)cc32)CC1", "note": "[USP24-i1]", "values": [{"measurement": "USP24 catalytic activity", "setting": "USP24 [1]", "result": "could block"}]}, {"molecule": "CN1CCN(CCN2c3ccccc3Sc3ccc(C(=O)c4ccccc4)cc32)CC1", "note": "[USP24-i-a]", "values": [{"measurement": "body weight", "setting": "HFD mice [2]", "result": "could be inhibited"}, {"measurement": "fatty liver", "setting": "HFD mice [2]", "result": "could be inhibited"}, {"measurement": "expression level of C/EBPβ", "setting": "[3]", "result": "also reduced"}, {"measurement": "expression level of SREBP1", "setting": "[3]", "result": "also reduced"}, {"measurement": "expression level of PLIN1 (Perilipin 1)", "setting": "[3]; dose-dependent", "result": "reduced"}, {"measurement": "expression level of PPAR-γ", "setting": "[3]; dose-dependent", "result": "reduced"}, {"measurement": "CREB", "setting": "CREB", "result": "inhibited"}, {"measurement": "CREB phosphorylation", "setting": "CREB", "result": "inhibited"}, {"measurement": "lipid droplets in liver (H&E)", "setting": "USP24-WT mice; USP24-WT HFD mice, 2 months high-fat diet", "result": "few to no lipid droplets"}, {"measurement": "lipid droplets in liver (H&E)", "setting": "USP24-WT mice; USP24-WT ND mice, 2 months normal diet", "result": "few to no lipid droplets"}, {"measurement": "signals of Oil-Red-O staining in the liver", "setting": "USP24-WT HFD mice", "result": "significantly reduced or nearly disappeared"}, {"measurement": "inhibition of USP24 activity", "setting": "USP24 [4]", "result": "superior inhibition"}, {"measurement": "lipid droplet accumulation", "setting": "3T3-L1 cells", "result": "significant reversal"}, {"measurement": "GOT (glutamic oxaloacetic transaminase)", "setting": "HFD-mice", "result": "significantly inhibited"}, {"measurement": "GPT (glutamic pyruvic transaminase)", "setting": "HFD-mice", "result": "significantly inhibited"}, {"measurement": "albumin (ALB)", "setting": "HFD-mice", "result": "did not significantly change"}, {"measurement": "total cholesterol", "setting": "HFD-mice", "result": "significantly inhibited"}, {"measurement": "total protein (TP)", "setting": "HFD-mice", "result": "did not significantly change"}, {"measurement": "triglyceride (TG)", "setting": "HFD-mice", "result": "did not significantly change"}, {"measurement": "size of epididymal WAT (eWAT)", "setting": "HFD mice [5]; HFD mice", "result": "could be inhibited"}, {"measurement": "size of inguial WAT (iWAT)", "setting": "HFD mice [5]; HFD mice", "result": "could be inhibited"}, {"measurement": "body weight", "setting": "HFD mice [5]; [7]", "result": "significantly decreased"}, {"measurement": "fatty liver", "setting": "HFD mice [5]; [7]", "result": "really decreased"}, {"measurement": "visceral fat", "setting": "HFD mice [5]; [7]", "result": "really decreased"}, {"measurement": "signal of fat around subcutaneous and organs", "setting": "HFD mice [6]", "result": "significantly inhibited"}]}]}
